PubChem BioAssay (NCI)
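Growth conditions: 96-well plates. Treatment: test compound, 48 hours, 5 concentrations. Analysis: linear interpolation between bracketing concentrations; unreached endpoints set to highest concentration. TGI: concentration producing complete growth inhibition.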

Columns and labels:
Assay in all cases: growth of human tumour cells (NCI), 48 h
[1] = system: UO-31 renal
[2] = system: NCI-H522 lung
[3] = system: SR leukemia
[4] = system: OVCAR-3 ovarian
[5] = system: OVCAR-4 ovarian
[6] = system: MDA-MB-435
[7] = system: LOX IMVI melanoma
[8] = system: BT-549 breast
[9] = system: HS 578T breast
[10] = system: HT29 colon
[11] = system: SN12C renal
[12] = system: NCI/ADR-RES ovarian
[13] = system: OVCAR-5 ovarian
[14] = system: SF-295 CNS
[15] = system: SF-539 CNS
[16] = system: HOP-62 NSCLC
[17] = system: UACC-257 melanoma
[18] = system: PC-3 prostate
[19] = system: MOLT-4 leukemia
[20] = system: SNB-75 CNS
[21] = system: SK-MEL-2 melanoma
[22] = system: HCT-116 colon
[23] = system: TK-10 renal
[24] = system: EKVX NSCLC
[25] = system: ACHN renal
[26] = system: DU-145 prostate
[27] = system: CCRF-CEM leukemia
[28] = system: A549 NSCLC
[29] = system: MDA-MB-231 breast
[30] = system: MCF7 breast
[31] = system: OVCAR-8 ovarian
[32] = system: UACC-62 melanoma
[33] = system: NCI-H23 lung
[34] = system: U251 CNS
[35] = system: SF-268 CNS
[36] = system: IGROV1 ovarian
[37] = system: CAKI-1 renal
[38] = system: HCC-2998 colon
[39] = system: NCI-H460 lung
[40] = system: K-562 leukemia
[41] = system: MDA-N
[42] = system: HOP-92 NSCLC
[43] = system: COLO 205 colon
[44] = system: SK-MEL-5 melanoma
[45] = system: SK-OV-3 ovarian
[46] = system: HCT-15 colon
[47] = system: RXF 393 renal
[48] = system: SW-620 colon
[49] = system: SNB-19 CNS
[50] = system: M14 melanoma
[51] = system: KM12 colon
[52] = system: 786-0 renal
[53] = system: A498 renal
[54] = system: HL-60(TB) leukemia
[55] = system: MALME-3M melanoma
[56] = system: SK-MEL-28 melanoma
[57] = system: NCI-H226 lung

Measured: TGI

COc1c(C)c(C/C=C(\C)CC/C=C(\C)CCC=C(C)C)c(OC)c(OC)c1OC
not listed: [53] | [54] | [55] | [56] | [57]
> 100 µM: all other assays above

COC(=O)c1c(-c2ccc(Cl)cc2)cc2c3ccccc3n(C)c2c1C(=O)OC
not listed: [3] | [20] | [38] | [47]
> 100 µM: all other assays above
